One series relates to Trichomonas vaginalis. Briefly: Minimum inhibitory concentration against Trichomonas vaginalis (own test). The format is cell-based. The following applies: comparison with metronidazole.
For series [1], the system named is trichomonads. To be noted: Lancini et al.; cited from earlier work.
Series [2] has as its system trichomonads. The following applies: Grunberg and Titsworth; cited from earlier work.
For series [3] the following is noted: Grunberg and Titsworth; cited from earlier work.

Converted amounts (≈) assume the structure as drawn.

Take `Cc1nc(-c2ncc([N+](=O)[O-])n2C)nc2c1CCc1ccccc1-2` [2-(5-Nitro-1-methyl-2-imidazolyl)-4-methyl-5,6-dihydrobenzo[h]quinazoline]: in the series with Trichomonas vaginalis, the MIC was 0.1 µg/mL (≈ 0.311 µM).

Turning to `Cc1ncc([N+](=O)[O-])n1CCO` [Metronidazole, 5-nitro-2-methyl-1-(2-hydroxyethyl)-imidazole], the MIC in the series with Trichomonas vaginalis came out at 1.6 µg/mL (≈ 9.35 µM).

Turning to `Cc1cc(C)nc(-c2ncc([N+](=O)[O-])n2C)n1` [4,6-Dimethyl-2-(5-nitro-1-methyl-2-imidazolyl)-pyrimidine], the lowest concentration to inhibit growth in the series on Trichomonas vaginalis (MIC) was 0.4 µg/mL (≈ 1.72 µM).

In the series with Trichomonas vaginalis, `Cn1c([N+](=O)[O-])cnc1-c1nc(-c2cccs2)cc(C(F)(F)F)n1` [4-Trifluoromethyl-2-(5-nitro-1-methyl-2-imidazolyl)-6-(2-thienyl)-pyrimidin] came in with an MIC of 0.2 µg/mL (≈ 0.563 µM).

As to `O=[N+]([O-])c1ncc[nH]1` [azomycin, 2-nitroimidazole], the “effectiveness in vitro compared with metronidazole” value in the series on trichomonads [1] is “no more effective in vitro than metronidazole”. In the series with trichomonads [2], the “ED50 value (in words, versus metronidazole)” value is listed as “considerably less favorable”. In addition, in series [3], the “LD50 value (in words, versus metronidazole)” value is listed as “considerably less favorable”.

Turning to `Cc1cc(-c2ccccc2)nc(-c2ncc([N+](=O)[O-])n2C)n1` [4-Methyl-6-phenyl-2-(5-nitro-1-methyl-2-imidazolyl)pyrimidine], it took 0.2 µg/mL (≈ 0.677 µM) to inhibit growth with Trichomonas vaginalis (MIC).

By MIC is commonly meant the lowest concentration that inhibits growth of the organism. Higher therefore signals a less susceptible organism.

The record behind these values is patent publication US3966732A, “Nitroimidazolyl pyrimidines” (Schering Aktiengesellschaft, priority 1972, dated 1976).
